GI50 and IC50 data for 12 compounds are collected here from patent publication US20230131025A1, “QUINOLYL PHOSPHINE OXIDE COMPOUND, AND COMPOSITION AND APPLICATION THEREOF” (Betta Pharmaceuticals Co., Ltd., priority 2020, published 2023).

Each structure is given as a SMILES string.

One assay addresses Ba/F3 EGFR WT (Homo sapiens, UniProt P00533). As to the kind of experiment: Cell proliferation experiment (CellTiter Glo, 72 hours). The assay is classed as cell-based. The conditions noted are these: read-out: BaF3 EGFR WT IC50. An outline of the steps:
(§1)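 Ba/F3 cells overexpressing EGFR Δ19del/T790M/C797S or EGFR WT were seeded at 2000 or 3000 cells/well and exposed 72 h to 9 compound concentrations (3-fold, top 10000 or 1111 nM final, 0.1% DMSO). CellTiter-Glo luminescence gave survival inhibition versus controls; IC50 from nonlinear fit.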
(ATP-based viability assays read luminescence as a measure of living cells.)

Another assay deals with Ba/F3-Δ19del/T790M/C797S (Homo sapiens, UniProt P00533, T790M/C797S, cells depend on it, form not given). The description is as above. The assay is classed as cell-based. The conditions noted are these: read-out: Ba/F3/EGFR Δ19del/T790M/C797S IC50. An outline of the steps:
as §1

The subject of assay [1] is human epidermal cancer cells A431 carrying EGFR WT. The assay is described as above. The conditions noted are these: Homo sapiens, A-431. The assay is classed as cell-based. Put shortly:
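Cells seeded at 2000 or 3000/well and exposed 72 h to 9-point 3-fold dilutions, top final 10000 nM or 1111 nM, 0.1% DMSO. Viability by CellTiter-Glo luminescence. Inhibition relative to cell and medium controls; IC50 by four-parameter nonlinear regression.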

For a further assay, the target named is IGF1R (Homo sapiens, UniProt P08069). As to the kind of experiment: Kinase inhibition assay (mobility shift). It is filed as biochemical. As for the experimental part: (§2) Experiment 1 Kinase Inhibition Assay Mobility shift assays were performed to determine inhibitory activity of compounds against EGFR^Δ19del/T790M/C797S, EGFR WT and IGF1R kinases. The enzymatic reaction scheme is as follows:
(§3) 1. Preparing 1*Kinase Buffer as follows:
(§4) 2. Preparing compound concentration gradient: the initial concentration of the compound tested in the assay was 3,000 nM or 100 nM, which is then diluted to be 100-fold final concentration in 100% DMSO in a 384-source plate. Compounds in 10 concentrations were diluted in a 3-fold gradient with Precision. 250 nL of compound in 100-fold final concentration was transferred to OptiPlate-384F plate by using a dispenser named Echo 550.
(§5) 3. Preparing kinase solution at 2.5-fold the final concentration with 1×kinase buffer.
(§6) 4. Adding 10 μL of kinase solution at 2.5-fold the final concentration to compound wells and positive control wells respectively; and adding 10 μL of 1×kinase buffer to negative control wells.
(§7) 5. Centrifuging the wells at 1,000 rpm for 30 seconds, mixing the reaction plate well by shaking and incubating it at room temperature for 10 minutes.
(§8) 6. Preparing a mixed solution of ATP and kinase substrate at 5-fold/3-fold the final concentration with 1×Kinase buffer, respectively.
(§9) 7. Initiating the reaction by adding 15 μL of the mixed solution of ATP and kinase substrate at 5-fold/3-fold the final concentration.
(§10) 8. Centrifuging the 384-well plate at 1,000 rpm for 30 seconds, mixing the reaction plate well by shaking and incubating it at room temperature for a corresponding time.
(§11) 9. Adding 30 μL of assay stop solution to stop the kinase reaction, and centrifuging the plate at 1,000 rpm for 30 seconds and mixing it well by shaking.
(§12) 10. Reading the conversion rate with Caliper EZ Reader.
(§13) [formula] • wherein, “Conversion % sample” is the conversion rate reading of the sample;
(§14) “Conversion %_min” is the mean value of the negative control wells, representing the conversion rate readings of the well without enzymatic activity; “Conversion %_max” is the mean value of the positive control wells, representing the conversion rate readings of the wells without compound inhibition. • Dose-response curve is plotted with the logarithmic concentration on the X-axis and percent inhibition on the Y-axis. The fitting of the dose-response curve is made with the module “log(inhibitor) vs. response—Variable slope” of the analysis software GraphPad Prism 5, so that the IC50 value of each compound on enzymatic activity is obtained. • The calculation formula is: Y=Bottom+(Top−Bottom)/(1+10^((Log IC50−X)*HillSlope)).

The target in another assay is EGFR WT (Homo sapiens, UniProt P00533). As to the kind of experiment: Kinase inhibition assay (mobility shift). The assay is classed as biochemical. As to the method: as §2, §3, §4, §5, §6, §7, §8, §9, §10, §11, §12, §13, §14
The target of a further assay is EGFR Δ19del/T790M/C797S (Homo sapiens, UniProt P00533, T790M/C797S, form not given). As to the kind of experiment: Kinase inhibition assay (mobility shift). It is filed as biochemical. As for the experimental part: as §2, §3, §4, §5, §6, §7, §8, §9, §10, §11, §12, §13, §14
EGFR Δ19del/T790M/C797S, sequence (P00533 with tags, fused parts or gaps DEL746-750/T790M/C797S, form open): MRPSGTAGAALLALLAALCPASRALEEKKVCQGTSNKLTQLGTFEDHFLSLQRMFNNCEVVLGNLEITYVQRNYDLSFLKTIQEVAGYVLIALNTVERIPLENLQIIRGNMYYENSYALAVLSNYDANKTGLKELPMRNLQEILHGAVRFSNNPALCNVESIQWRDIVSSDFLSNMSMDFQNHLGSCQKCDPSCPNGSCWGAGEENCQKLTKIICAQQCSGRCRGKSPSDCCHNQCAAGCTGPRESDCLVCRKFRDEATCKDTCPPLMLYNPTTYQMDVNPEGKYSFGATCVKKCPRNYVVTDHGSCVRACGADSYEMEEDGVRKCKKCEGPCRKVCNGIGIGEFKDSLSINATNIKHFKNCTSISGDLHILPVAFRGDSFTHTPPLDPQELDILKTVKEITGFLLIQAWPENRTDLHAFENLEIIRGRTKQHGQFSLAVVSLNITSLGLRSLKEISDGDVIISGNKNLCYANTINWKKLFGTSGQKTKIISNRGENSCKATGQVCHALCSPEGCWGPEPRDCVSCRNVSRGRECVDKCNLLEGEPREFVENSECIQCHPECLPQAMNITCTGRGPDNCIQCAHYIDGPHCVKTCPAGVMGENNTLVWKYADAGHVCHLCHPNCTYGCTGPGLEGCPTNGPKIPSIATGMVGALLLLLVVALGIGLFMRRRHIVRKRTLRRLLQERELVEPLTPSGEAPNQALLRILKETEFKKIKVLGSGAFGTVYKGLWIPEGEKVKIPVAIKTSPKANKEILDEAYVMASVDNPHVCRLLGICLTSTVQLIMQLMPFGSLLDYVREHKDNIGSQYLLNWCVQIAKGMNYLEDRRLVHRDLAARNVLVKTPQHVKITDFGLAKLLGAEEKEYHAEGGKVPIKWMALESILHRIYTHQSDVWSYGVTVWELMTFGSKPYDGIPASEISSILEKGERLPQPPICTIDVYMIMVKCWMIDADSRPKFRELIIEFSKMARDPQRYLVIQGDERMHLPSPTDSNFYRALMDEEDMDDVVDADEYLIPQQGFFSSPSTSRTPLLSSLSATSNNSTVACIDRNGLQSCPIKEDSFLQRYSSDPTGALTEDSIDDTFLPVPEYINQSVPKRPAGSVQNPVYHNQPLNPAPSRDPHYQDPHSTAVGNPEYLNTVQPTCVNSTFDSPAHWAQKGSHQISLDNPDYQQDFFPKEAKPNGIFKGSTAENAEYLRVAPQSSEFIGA

Ba/F3-Δ19del/T790M/C797S, sequence (P00533 with tags, fused parts or gaps DEL746-750/T790M/C797S, form open): as above
IGF1R, sequence (P08069 31-1367, species assumed): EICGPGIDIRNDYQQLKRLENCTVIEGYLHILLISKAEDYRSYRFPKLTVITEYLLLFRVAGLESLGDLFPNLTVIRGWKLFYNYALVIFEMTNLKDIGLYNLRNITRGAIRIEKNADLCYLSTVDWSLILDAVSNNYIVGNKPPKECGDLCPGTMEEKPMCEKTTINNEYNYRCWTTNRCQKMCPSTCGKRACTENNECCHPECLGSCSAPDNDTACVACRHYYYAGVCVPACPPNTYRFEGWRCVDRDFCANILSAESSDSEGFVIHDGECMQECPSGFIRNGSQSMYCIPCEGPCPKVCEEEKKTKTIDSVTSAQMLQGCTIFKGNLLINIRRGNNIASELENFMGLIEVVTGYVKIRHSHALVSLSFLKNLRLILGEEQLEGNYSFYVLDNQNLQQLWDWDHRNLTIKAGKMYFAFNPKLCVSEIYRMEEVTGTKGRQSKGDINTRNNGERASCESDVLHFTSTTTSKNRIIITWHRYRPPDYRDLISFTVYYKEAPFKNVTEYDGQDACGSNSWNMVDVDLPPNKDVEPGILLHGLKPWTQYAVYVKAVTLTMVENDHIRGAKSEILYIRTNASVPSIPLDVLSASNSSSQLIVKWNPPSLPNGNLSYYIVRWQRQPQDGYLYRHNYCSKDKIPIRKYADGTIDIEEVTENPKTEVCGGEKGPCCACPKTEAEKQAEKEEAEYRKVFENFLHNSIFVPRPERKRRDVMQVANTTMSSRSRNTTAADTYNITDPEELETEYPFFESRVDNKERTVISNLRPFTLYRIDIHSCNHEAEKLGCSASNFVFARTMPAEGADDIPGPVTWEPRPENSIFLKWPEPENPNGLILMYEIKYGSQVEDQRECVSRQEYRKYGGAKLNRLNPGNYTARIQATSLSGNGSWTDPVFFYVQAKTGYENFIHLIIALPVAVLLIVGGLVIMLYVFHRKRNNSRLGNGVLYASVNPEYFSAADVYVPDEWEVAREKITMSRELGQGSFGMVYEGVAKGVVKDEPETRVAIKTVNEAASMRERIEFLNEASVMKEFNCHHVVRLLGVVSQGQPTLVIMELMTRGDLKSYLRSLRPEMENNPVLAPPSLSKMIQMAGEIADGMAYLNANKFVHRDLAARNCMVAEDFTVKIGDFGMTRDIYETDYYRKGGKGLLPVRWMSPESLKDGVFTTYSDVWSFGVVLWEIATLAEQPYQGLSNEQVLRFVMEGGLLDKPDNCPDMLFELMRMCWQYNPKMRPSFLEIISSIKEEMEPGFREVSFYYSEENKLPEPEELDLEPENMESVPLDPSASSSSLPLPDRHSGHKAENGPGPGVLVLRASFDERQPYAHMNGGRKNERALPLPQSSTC
Ba/F3 EGFR WT, sequence (P00533 whole entry, stated change not applied): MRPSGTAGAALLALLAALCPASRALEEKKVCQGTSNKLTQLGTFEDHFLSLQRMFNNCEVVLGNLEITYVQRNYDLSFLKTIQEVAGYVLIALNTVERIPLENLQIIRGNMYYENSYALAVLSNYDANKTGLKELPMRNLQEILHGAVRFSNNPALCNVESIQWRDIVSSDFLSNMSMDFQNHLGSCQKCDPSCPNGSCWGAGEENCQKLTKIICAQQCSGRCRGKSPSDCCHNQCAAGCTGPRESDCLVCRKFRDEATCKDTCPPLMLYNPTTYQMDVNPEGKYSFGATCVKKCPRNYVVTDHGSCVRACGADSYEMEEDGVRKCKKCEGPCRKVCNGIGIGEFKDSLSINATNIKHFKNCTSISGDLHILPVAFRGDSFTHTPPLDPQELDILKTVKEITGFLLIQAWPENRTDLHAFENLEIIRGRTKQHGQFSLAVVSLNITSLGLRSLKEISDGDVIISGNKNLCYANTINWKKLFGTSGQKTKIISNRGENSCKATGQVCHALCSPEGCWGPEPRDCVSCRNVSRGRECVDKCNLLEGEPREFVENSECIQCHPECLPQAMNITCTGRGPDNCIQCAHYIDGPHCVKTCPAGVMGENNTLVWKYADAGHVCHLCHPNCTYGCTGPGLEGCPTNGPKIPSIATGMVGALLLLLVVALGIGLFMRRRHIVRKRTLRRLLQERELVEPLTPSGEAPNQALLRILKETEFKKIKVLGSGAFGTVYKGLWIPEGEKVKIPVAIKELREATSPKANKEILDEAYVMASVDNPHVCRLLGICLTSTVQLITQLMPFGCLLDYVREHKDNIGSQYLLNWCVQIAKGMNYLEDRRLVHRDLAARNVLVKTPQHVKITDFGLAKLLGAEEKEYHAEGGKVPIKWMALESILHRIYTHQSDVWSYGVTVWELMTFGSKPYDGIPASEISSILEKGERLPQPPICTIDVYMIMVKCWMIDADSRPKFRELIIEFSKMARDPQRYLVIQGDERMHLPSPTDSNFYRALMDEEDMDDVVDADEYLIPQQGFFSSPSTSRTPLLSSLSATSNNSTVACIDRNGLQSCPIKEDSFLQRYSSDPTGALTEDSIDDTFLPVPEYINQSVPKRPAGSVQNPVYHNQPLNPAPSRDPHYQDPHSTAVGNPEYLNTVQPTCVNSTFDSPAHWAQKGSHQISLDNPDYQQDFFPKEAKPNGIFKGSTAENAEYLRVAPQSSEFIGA

Turning to `COc1cc(Nc2ncc(Br)c(Nc3ccc4nc(-c5cnn(C)c5)ccc4c3P(C)(C)=O)n2)c(C)cc1N1CCOCC1` [Compound J-007, (6-((5-Bromo-2-((5-methoxy-2-methyl-4-morpholinylphenyl)amino)pyrimidin-4-yl)amino)-2-(1-methyl-1H-pyrazol-4-yl)quinolin-5-yl)dimethylphosphine oxide], the GI50 came to 147 nM at Ba/F3 EGFR WT and 6 nM on Ba/F3-Δ19del/T790M/C797S. Also, the IC50 (commonly the concentration needed to halve the response being measured) amounted to 1030 nM in assay [1], 41 nM on IGF1R, 30.3 nM at EGFR WT and 0.2 nM at EGFR Δ19del/T790M/C797S.

Consider `COc1cc(Nc2ncc(Br)c(Nc3ccc4nc(C5CC5)ccc4c3P(C)(C)=O)n2)c(C(C)C)cc1N1CCOCC1` [Compound J-005, (6-((5-Bromo-2-((2-isopropyl-5-methoxy-4-morpholinylphenyl)amino)pyrimidin-4-yl)amino)-2-cyclopropylquinoline-5-yl)dimethylphosphine oxide], for which the GI50 stood at 698 nM on Ba/F3 EGFR WT and 27 nM on Ba/F3-Δ19del/T790M/C797S. Also, the IC50 was 6140 nM in assay [1], 74.4 nM on IGF1R, 132 nM on EGFR WT and 0.5 nM at EGFR Δ19del/T790M/C797S.

In the case of `COc1cc(N2CCC(N3CCN(C)CC3)CC2)c(C)cc1Nc1ncc(Br)c(Nc2ccc3ncccc3c2P(C)(C)=O)n1` [Compound J-041, (6-((5-Bromo-2-((2-methoxy-5-methyl-4-(4-(4-methylpiperazin-1-yl)piperidin-1-yl)phenyl)amino)pyrimidin-4-yl)amino)quinolin-5-yl)dimethylphosphine oxide], the GI50 was 354 nM at Ba/F3 EGFR WT and 28.4 nM on Ba/F3-Δ19del/T790M/C797S. Also, the IC50 is 228 nM in assay [1], 25 nM on IGF1R, 11.5 nM on EGFR WT and 0.2 nM on EGFR Δ19del/T790M/C797S.

For the compound `CCc1ccc2c(P(C)(C)=O)c(Nc3nc(Nc4cc(C)c(N5CCC(N6CCN(C)CC6)CC5)cc4OC)ncc3Br)ccc2n1` [Compound J-028, (6-((5-Bromo-2-((2-methoxy-5-methyl-4-(4-(4-methylpiperazin-1-yl)piperidin-1-yl)phenyl)amino)pyrimidin-4-yl)amino)-2-ethylquinolin-5-yl)dimethylphosphine oxide], the GI50 at Ba/F3 EGFR WT amounted to 155 nM; at Ba/F3-Δ19del/T790M/C797S it was 20.8 nM. For the same compound, the IC50 was found to be 842 nM in assay [1], 116 nM on IGF1R, 19 nM on EGFR WT and 0.14 nM on EGFR Δ19del/T790M/C797S.

With `CCc1cc(Nc2ncc(Br)c(Nc3ccc4nc(C#N)ccc4c3P(C)(C)=O)n2)c(OC)cc1N1CCC(N2CCN(C)CC2)CC1` [Compound J-016, 6-((5-Bromo-2-((5-ethyl-2-methoxy-4-(4-(4-methylpiperazin-1-yl)piperidin-1-yl)phenyl)amino)pyrimidin-4-yl)amino)-5-(dimethylphosphineoxide)quinoline-2-formonitrile], the GI50 came to 132 nM on Ba/F3 EGFR WT and 5.1 nM at Ba/F3-Δ19del/T790M/C797S. Moreover, the IC50 came out at 379 nM in assay [1], 16.8 nM on IGF1R, 4.6 nM on EGFR WT and 0.3 nM at EGFR Δ19del/T790M/C797S.

On to `COc1cc(Nc2ncc(Br)c(Nc3ccc4nc(C5CC5)ccc4c3P(C)(C)=O)n2)c(C)cc1N1CCN(C2CCCC2)CC1` [Compound J-039, (6-((5-Bromo-2-((4-(4-cyclopentylpiperazin-1-yl)-5-methoxy-2-methylphenyl)amino)pyrimidin-4-yl)amino)-2-cyclopropylquinolin-5-yl)dimethylphosphine oxide], for which the GI50 at Ba/F3 EGFR WT worked out at 256 nM; at Ba/F3-Δ19del/T790M/C797S, 12 nM. The IC50 in assay [1] worked out at 1110 nM; at IGF1R it was 21.5 nM; on EGFR WT it was 33.5 nM; on EGFR Δ19del/T790M/C797S, 0.5 nM.

Regarding `CCc1cc(N2CCOCC2)c(OC)cc1Nc1ncc(Br)c(Nc2ccc3nc(C4CC4)ccc3c2P(C)(C)=O)n1` [Compound J-003, (6-((5-Bromo-2-((2-ethyl-5-methoxy-4-morpholinylphenyl)amino)pyrimidin-4-yl)amino)-2-cyclopropylquinoline-5-yl)dimethylphosphine oxide], the figures for the GI50 on Ba/F3 EGFR WT and on Ba/F3-Δ19del/T790M/C797S were 646 nM and 25.7 nM, respectively. In addition, the IC50 came to 3040 nM in assay [1], 189 nM on IGF1R, 172 nM at EGFR WT and 0.5 nM at EGFR Δ19del/T790M/C797S.

Take `COc1cc(Nc2ncc(Br)c(Nc3ccc4nc(C5CC5)ccc4c3P(C)(C)=O)n2)c(C)cc1N1CCC(N(C)C)CC1` [Compound J-009, (6-((5-Bromo-2-((4-(4-(dimethylamino)piperidin-1-yl)-5-methoxy-2-methylphenyl)amino)pyrimidine-4-yl)amino)-2-cyclopropylquinolin-5-yl)dimethylphosphine oxide]: the GI50 at Ba/F3 EGFR WT is 168 nM; at Ba/F3-Δ19del/T790M/C797S, 16.3 nM. The IC50 came to 384 nM in assay [1], 14.8 nM at IGF1R, 14.4 nM on EGFR WT and 0.3 nM on EGFR Δ19del/T790M/C797S.

With `COc1cc(N2CCC(N3CCN(C)CC3)CC2)c(C#N)cc1Nc1ncc(Br)c(Nc2ccc3nc(C4CC4)ccc3c2P(C)(C)=O)n1` [Compound J-021, 5-((5-Bromo-4-((2-cyclopropyl-5-(dimethylphosphineoxide)quinolin-6-yl)amino)pyrimidin-2-yl)amino)-4-methoxy-2-(4-(4-methylpiperazin-1-yl)piperidin-1-yl)benzonitrile], the GI50 at Ba/F3 EGFR WT was found to be 238 nM; on Ba/F3-Δ19del/T790M/C797S, 11.7 nM. In addition, the IC50 worked out at 1140 nM in assay [1], 293 nM on IGF1R, 19.3 nM at EGFR WT and 0.3 nM on EGFR Δ19del/T790M/C797S.

`CCc1cc(Nc2ncc(Br)c(Nc3ccc4nc(C5CC5)ccc4c3P(C)(C)=O)n2)c(OC)cc1N1CCC(N2CCN(C)CC2)CC1` [Compound J-018, (6-((5-Bromo-2-((5-ethyl-2-methoxy-4-(4-(4-methylpiperazin-1-yl)piperidin-1-yl)phenyl)amino)pyrimidin-4-yl)amino)-2-cyclopropylquinolin-5-yl)dimethylphosphine oxide]: the GI50 on Ba/F3 EGFR WT worked out at 160 nM; at Ba/F3-Δ19del/T790M/C797S, 1.9 nM. Further, the IC50 in assay [1] was determined as 1500 nM; on IGF1R, 178 nM; at EGFR WT it was 7.3 nM; at EGFR Δ19del/T790M/C797S it was 0.3 nM.

In the case of `COc1cc(Nc2ncc(Br)c(Nc3ccc4nc(C5CC5)ccc4c3P(C)(C)=O)n2)cc(C)c1N1CCC(N2CCN(C)CC2)CC1` [Compound J-029, (6-((5-Bromo-2-((3-methoxy-5-methyl-4-(4-(4-methylpiperazin-1-yl)piperidin-1-yl)phenyl)amino)pyrimidin-4-yl)amino)-2-cyclopropylquinolin-5-yl)dimethylphosphine oxide], the GI50 on Ba/F3 EGFR WT came out at 98.5 nM; at Ba/F3-Δ19del/T790M/C797S, 12.1 nM. Also, the IC50 amounted to 204 nM in assay [1], 58.1 nM at IGF1R, 41.3 nM at EGFR WT and 0.22 nM on EGFR Δ19del/T790M/C797S.

In the case of `COc1cc(N2CCC(N3CCN(C)CC3)CC2)c(OC)cc1Nc1ncc(Br)c(Nc2ccc3nc(C4CC4)ccc3c2P(C)(C)=O)n1` [Compound J-020, (6-((5-Bromo-2-((2,5-dimethoxy-4-(4-(4-methylpiperazin-1-yl)piperidin-1-yl)phenyl)amino)pyrimidin-4-yl)amino)-2-cyclopropylquinolin-5-yl)dimethylphosphine oxide], the GI50 was determined as 144 nM on Ba/F3 EGFR WT and 2.2 nM at Ba/F3-Δ19del/T790M/C797S. For the same compound, the IC50 in assay [1] worked out at 983 nM; on IGF1R, 107 nM; at EGFR WT it was 21 nM; on EGFR Δ19del/T790M/C797S, 0.72 nM.
